The nature of the data set: gradient 5% acetonitrile 3 min, to 50% in 2 min, to 85% in 15 min, held 3 min, 100 µL/min. Particulars: column: Zorbax Extend-C18 2.1 x 50 mm; eluents: water / acetonitrile, 0.1% formic acid. The gist of the method: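 The mobile phases were water and acetonitrile, each with 0.1% formic acid, pumped at 100 μL/min through a Zorbax Extend-C18 column (2.1 × 50 mm, 1.8 μm). Pure standards were injected as mixtures of ~100 molecules and detected by a quadrupole time-of-flight mass spectrometer in positive and negative ionization mode. Retention time came from computationally picked adduct peaks, each inspected by hand.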
On to `Cc1ccnc(N2CCCC(C(=O)N3CCC(C(N)=O)(N4CCCCC4)CC3)C2)n1` (configuration not stated), for which the RP-LC retention time is 542 s.

Turning to `Cn1nc(C(=O)N2CCCC2)c2c1CCN(C(=O)CCC(=O)NC1CCCCC1)C2`, the RP-LC retention time is 664 s.

Molecule `CSc1ccc(CCNC(=O)c2ccc3c(c2)nc(C)c(=O)n3C)cc1` displayed an RP-LC retention time of 765 s.

The molecule `Cc1ccc(S(=O)(=O)N2CCCC2C(=O)Nc2nnc(-c3ccc(C)c(C)c3)o2)cc1` (configuration not stated) returned an RP-LC retention time of 872 s.

`CCN(CC)S(=O)(=O)c1ccc2c(c1)N(CC(=O)NCc1ccccc1C)C(=O)C1CCCCN21` (configuration not stated) had an RP-LC retention time of 1020 s.

`COc1ccc(-c2nnc(-c3cc(S(=O)(=O)NCC4CCCO4)ccc3Cl)o2)cc1` (configuration not stated) registered an RP-LC retention time of 917 s.

`O=C(CC1CCCC1)Nc1nc(-c2cccc3ccccc23)cs1` came in with an RP-LC retention time of 1220 s.

The molecule `CCOC(=O)Cc1[nH]nc2ccc(F)cc12` yielded an RP-LC retention time of 697 s.

For the molecule `Cn1cccc1-c1cc2n(n1)CCC(=O)N2CCCC(=O)NCc1cccc(Cl)c1`, the RP-LC retention time came out at 804 s.

As to `Cc1ccc(CNC(=O)C2(C)CN(S(C)(=O)=O)CC(=O)N2c2ccc(F)cc2F)cc1` (configuration not stated), the RP-LC retention time came out at 814 s.

As to `O=c1c2cc(-c3ccccc3)nn2ccn1Cc1noc(CN2CCOCC2)n1`, the RP-LC retention time worked out at 681 s.

For `CCCC(=O)Nc1ccc(-n2cnc(C(=O)NC3CCCCC3)c2)nc1`, the RP-LC retention time is 758 s.

The molecule `CC(C)C(=O)c1c(C(C)C)nn2ccccc12` returned an RP-LC retention time of 1010 s.

`CC(=O)Nc1ccc(Nc2nc3ccccc3nc2NS(=O)(=O)c2cccs2)cc1` yielded an RP-LC retention time of 794 s.

With `CC1=C(c2ccc(C)cc2)S(=O)(=O)N=C1N1CCCN(C(=O)C2CCC2)CC1`, the RP-LC retention time came to 818 s.

As for `COc1ccc(-c2nc(NC(=O)CSc3ccccc3)sc2CCC(=O)O)cc1`, the RP-LC retention time was determined as 852 s.

Take `Cc1ccc(CNC(=O)N2CC(N(CC3CC3)C3CCOCC3)C2)cc1`: the RP-LC retention time is 582 s.

Regarding `COc1ccc(-c2ncc3c(n2)CCN(C(=O)c2ccc(C(F)(F)F)cc2)C3)cc1`, the RP-LC retention time is 1010 s.

Molecule `CNC(=O)c1cc(COc2nnc(Nc3ccc(Cl)cc3)c3ccoc23)ccn1` came in with an RP-LC retention time of 749 s.

Molecule `COc1ccc(NC(=O)N2[C@H]3CC[C@@H]2c2cncnc2C3)cc1F` returned an RP-LC retention time of 649 s.

On to `COc1ccc(-c2nc(-c3cccc(-c4ccn[nH]4)c3)no2)cc1F`, for which the RP-LC retention time was 978 s.

Molecule `CCOc1ccccc1C(=O)Nc1ccc2c(c1)Sc1ncccc1C(=O)N2C` gave an RP-LC retention time of 806 s.

As for `Cc1nc(-c2cccc(NC(=O)c3ccc(N4CCCC4)nn3)c2)cs1`, the RP-LC retention time was 676 s.

Regarding `Cc1ccc(N2CCN(S(=O)(=O)c3cc(-c4nnc(C5CC5)o4)co3)CC2)cc1`, the RP-LC retention time was 818 s.

`O=C(NCc1ccc(F)cc1)Nc1ccc(-c2nc(-c3ccccc3)co2)cc1` had an RP-LC retention time of 1050 s.

`Cc1ccc(-c2noc(-c3cccc(S(=O)(=O)NCc4ccccc4)c3)n2)cc1`: the RP-LC retention time is 1210 s.

As for `CCn1cc(CN(C)C(=O)C2N(C(C)C)C(=O)C23CCCC3)c(C)n1` (configuration not stated), the RP-LC retention time was 612 s.

Molecule `COc1ccc(-c2cn3c(CC(=O)Nc4cc(OC)ccc4OC)csc3n2)cc1` had an RP-LC retention time of 780 s.

Consider `Clc1cc(N2CCSCC2)ncn1`, for which the RP-LC retention time came out at 763 s.

On to `O=C(/C=C/c1ccccc1)NC(NC(=S)Nc1cccc2cccnc12)C(Cl)(Cl)Cl` (configuration not stated), for which the RP-LC retention time was found to be 1020 s.

Turning to `O=C(Nc1cccc(Cl)c1)c1c(O)c2cccnc2n(-c2cccc(F)c2)c1=O`, the RP-LC retention time was 1360 s.

As to `CCc1ccc(C(=O)N2CCC(c3nc4ccncc4n3C(C)C)C2)cc1` (configuration not stated), the RP-LC retention time amounted to 572 s.

For the origin of these results see the METLIN SMRT retention time set (Domingo-Almenara et al. 2019).
